# Assay results as given in PMC6234764, “First Insights Into Within Host Translocation of the Bacillus cereus Toxin Cereulide Using a Porcine Model” (Frontiers in Microbiology, 2018).
# Read-outs that look alike come from different tables or passages of the source.
# Legend:
# [1] = Cereulide in organs and tissues, SIDA-MS; type: in vivo, pig; details: for tissue level at time at 48 h / tissue level at time at 168 h: pig; for tissue level at time at 168 h: 10 ug/kg, daily oral dose 10 μg kg^-1 for 7 days
# Procedure: (§1) A total of four experiments, each including four treated animals and one control pig, was performed to investigate the action of cereulide on piglets after oral intake of cereulide. Pigs were either challenged orally with a single dose (acute trials) or with daily over a period of 7 days (chronic trial) (see Table 1). One hour before cereulide toxin administration blood samples were taken by puncturing the anterior Vena cava and piglets were weighed for calculation of the cereulide concentration (t = 0 h). In the intoxication experiment with 150 μg kg^-1 blood samples were taken 68 h before the experiment to reduce the distress for the animals at the start day of the experiments. Blood-chemical, immunological, and histological analyses of selected organs as well as quantification of cereulide in organs, tissues, urine and feces were carried out as detailed below.
# (§2) On body weight calculated amounts of cereulide, dissolved in ethanol, were mixed with milk (UHT milk; 3.5% fat), and fed to four piglets. Control piglets were fed with milk supplemented with similar ethanol concentrations as the experimental piglets. The experiment started after the uptake of the whole milk cereulide mixture. The milk was checked for bacterial contamination prior to the experiment.
# (§3) After oral administration of cereulide, piglets were monitored for unusual behavior and examined physically with special respect on rectal body temperature as well as pulse and respiration rate, every 2–3 h. Blood samples were taken from the Vena cava cranialis. Urine and feces were collected during the whole experiment and stored at -80°C. After the experiment pigs were anaesthetized by intramuscular injection of a bolus of ketamine (10 mg kg^-1) and azaperone (1.3 mg kg^-1). When sedation was deep enough cerebrospinal fluid (liquor) was taken by lumbar puncture. Finally, pigs were euthanized by intracardial injection of T61®. Animals were then necropsied and parts of the following organs, tissues or body fluids were taken for SIDA-MS analysis: liver, lung, heart, kidney, brain, spleen, small and large intestine, lymph nodes, gastric as well as intestinal contents, skeletal muscle, and abdominal and subcutaneous fat. Samples of liver, lung, heart, kidney, brain, spleen, small, and large intestine were collected for histological analysis.
# Collected blood samples, urine, feces, tissue and organs were freeze dried and stored at -80°C until analysis. Before extraction, liquid nitrogen was added to frozen samples and they were crushed to a powder using a mortar. Ten microgram ^13C6-cereulide (for organs and feces) or 5 μg ^13C6-cereulide (for urine and blood) was added and samples were incubated on a rocking table for 2 h. Samples were solved in ethanol (volume depending on weight 10–40 mL), incubated 14 h, and the supernatants were collected by centrifugation (RT, 8500 g, 10 min). For pre-purification the ethanolic extract was 1:5 diluted with water and applied onto the top of a methanol activated C18-SPE cartridge (6 mL; 1 g; Strata C18-E; Phenomenex, Aschaffenburg, Germany). The cartridge was washed with 6 mL water followed by methanol/water (4 mL; 70/30, v/v) and target compounds were eluted with ethanol (2.5 mL). Finally, samples were membrane filtrated (0.2 μm; PTFE membrane; Phenomenex, Aschaffenburg, Germany) and analyzed by means of LC-MS/MS as described previously ([Bauer et al., 2010]). In brief, LC-MS/MS analysis was performed using an Agilent 1200 HPLC-system connected to the API 4000QTrap LC-MS/MS (Applied Biosystems, Darmstadt, Germany) running in the positive electrospray ionization (ESI^+, +5500 V) mode. Zero grade air served as nebulizer gas (45 psi) and turbo gas (425°C) for solvent drying (55 psi), nitrogen was used as curtain (20 psi) and collision gas (8.7 × 10^-7 psi), respectively. Both quadrapoles were set at unit resolution. […]
# [2] = Cereulide in blood, SIDA-MS; type: in vivo, pig
# Procedure: as §1, §2, §3
# Collected blood samples, urine, feces, tissue and organs were freeze dried and stored at -80°C until analysis. Before extraction, liquid nitrogen was added to frozen samples and they were crushed to a powder using a mortar. […] Finally, samples were membrane filtrated (0.2 μm; PTFE membrane; Phenomenex, Aschaffenburg, Germany) and analyzed by means of LC-MS/MS as described previously ([Bauer et al., 2010]). […]
# [3] = single oral dose 30 μg kg^-1, necropsy after 48 h, SIDA-MS
# [4] = single oral dose 150 μg kg^-1, necropsy after 48 h, SIDA-MS
structure (smiles),measurement,setting,value
CC(C)C[C@H]1OC(=O)[C@H](C(C)C)NC(=O)[C@H](C(C)C)OC(=O)[C@@H](C)NC(=O)[C@@H](CC(C)C)OC(=O)[C@H](C(C)C)NC(=O)[C@H](C(C)C)OC(=O)[C@@H](C)NC(=O)[C@@H](CC(C)C)OC(=O)[C@H](C(C)C)NC(=O)[C@H](C(C)C)OC(=O)[C@@H](C)NC1=O [cereulide],tissue level at time at 48 h,"[1]; large intestine, 30 ug/kg, single oral dose 30 μg kg^-1, necropsy after 48 h, SIDA-MS, read-out: Cereulide concentration in large intestine, average",0.07 ± 0.06 ng/g
same,tissue level at time at 48 h,"[1]; large intestine, 150 ug/kg, single oral dose 150 μg kg^-1, necropsy after 48 h, SIDA-MS, read-out: Cereulide concentration in large intestine, average",30.5 ± 14.3 ng/g
same,tissue level at time at 168 h,"[1]; liver, SIDA-MS, read-out: Cereulide concentration in liver, average",0.14 ± 0.08 ng/g
same,tissue level at time at 48 h,"[1]; liver, 150 ug/kg, single oral dose 150 μg kg^-1, necropsy after 48 h, SIDA-MS, read-out: Cereulide concentration in liver, average",0.37 ± 0.07 ng/g
same,tissue level at time at 168 h,"[1]; lymph nodes, SIDA-MS, read-out: Cereulide concentration in lymph nodes, average",0.07 ± 0.07 ng/g
same,tissue level at time at 48 h,"[1]; lymph nodes, 150 ug/kg, single oral dose 150 μg kg^-1, necropsy after 48 h, SIDA-MS, read-out: Cereulide concentration in lymph nodes, average",2.82 ± 1.71 ng/g
same,tissue level at time at 168 h,"[1]; muscle, SIDA-MS, read-out: Cereulide concentration in muscle, average",1.12 ± 1.12 ng/g
same,tissue level at time at 48 h,"[1]; muscle, 150 ug/kg, single oral dose 150 μg kg^-1, necropsy after 48 h, SIDA-MS, read-out: Cereulide concentration in muscle, average",0.39 ± 0.32 ng/g
same,tissue level at time at 48 h,"[1]; small intestine, 150 ug/kg, single oral dose 150 μg kg^-1, necropsy after 48 h, SIDA-MS, read-out: Cereulide concentration in small intestine, average",1.34 ± 0.88 ng/g
same,tissue level at time at 168 h,"[1]; spleen, SIDA-MS, read-out: Cereulide concentration in spleen, average",0.15 ± 0.06 ng/g
same,tissue level at time at 48 h,"[1]; spleen, 150 ug/kg, single oral dose 150 μg kg^-1, necropsy after 48 h, SIDA-MS, read-out: Cereulide concentration in spleen, average",2.26 ± 1.75 ng/g
same,tissue level at time at 48 h,"[1]; stomach, 150 ug/kg, single oral dose 150 μg kg^-1, necropsy after 48 h, SIDA-MS, read-out: Cereulide concentration in stomach, average",2 ± 3.2 ng/g
same,tissue level at time at 168 h,"[1]; subcutaneous fat, SIDA-MS, read-out: Cereulide concentration in subcutaneous fat, average",0.04 ± 0.04 ng/g
same,tissue level at time at 48 h,"[1]; subcutaneous fat, 150 ug/kg, single oral dose 150 μg kg^-1, necropsy after 48 h, SIDA-MS, read-out: Cereulide concentration in subcutaneous fat, average",0.74 ± 0.51 ng/g
same,"Cereulide concentration in content of large intestine, range",[1]; [3],0 to 0.09 ng/g
same,"Cereulide concentration in large intestine, range",[1]; [3],0 to 0.13 ng/g
same,"Cereulide in content of the large intestine, maximum",[1]; single oral dose 150 μg kg^-1,up to 140 ng g^-1
same,"Cereulide in content of the small intestine, maximum",[1]; single oral dose 150 μg kg^-1,≤ 1 ng/g
same,"Cereulide in the brain, animal with highest blood concentration",[1]; single oral dose 150 μg kg^-1,1.4 ng cereulide g^-1
same,"Cereulide in fat tissue, one animal","[1]; single oral dose 150 μg kg^-1, animal with highest blood concentration",2 ng cereulide g^-1 fat tissue
same,"Cereulide concentration in abdominal fat, range",[1]; [4],2.17 to 12.02 ng/g
same,"Cereulide concentration in brain, range",[1]; [4],0.15 to 1.41 ng/g
same,"Cereulide concentration in content of large intestine, range",[1]; [4],5.84 to 140.99 ng/g
same,"Cereulide concentration in content of small intestine, range",[1]; [4],0 to 1.06 ng/g
same,"Cereulide concentration in kidney, range",[1]; [4],0 to 0.43 ng/g
same,"Cereulide concentration in large intestine, range",[1]; [4],7.14 to 45.75 ng/g
same,"Cereulide concentration in liver, range",[1]; [4],0.25 to 0.41 ng/g
same,"Cereulide concentration in lymph nodes, range",[1]; [4],0 to 4.50 ng/g
same,"Cereulide concentration in muscle, range",[1]; [4],0 to 0.76 ng/g
same,"Cereulide concentration in small intestine, range",[1]; [4],0.34 to 2.49 ng/g
same,"Cereulide concentration in spleen, range",[1]; [4],1.15 to 5.29 ng/g
same,"Cereulide concentration in stomach, range",[1]; [4],0.11 to 7.54 ng/g
same,"Cereulide concentration in subcutaneous fat, range",[1]; [4],0.35 to 1.37 ng/g
same,"Cereulide in fat tissues, maximum","[1]; single oral dose 150 μg kg^-1, two out of four animals",up to 12 ng cereulide g^-1
same,Detectability of cereulide in blood,"[2]; single oral dose 150 μg kg^-1, after 24–48 h",detectable in three out of four pigs
same,Highest concentration of cereulide in the blood,"[2]; single oral dose 150 μg kg^-1, one animal",45 ng cereulide mL^-1
same,Time of first detection in blood,"[2]; single oral dose 150 μg kg^-1, pig with highest blood levels",8 h
same,Maximum cereulide in blood after 24 h,"[2]; single oral dose 150 μg kg^-1, pig with lowest abdominal fat level, 24 h",45 ng cereulide mL^-1
